Source: ChEMBL document CHEMBL1949553, “Microbial transformation of deoxyandrographolide and their inhibitory activity on LPS-induced NO production in RAW 264.7 macrophages” (Bioorg Med Chem Lett, 2012)

Assays:
RAW264.7 = assay: Antiinflammatory activity in mouse RAW264.7 cells assessed as inhibition of LPS-induced NO production after 24 hrs by Griess method; assay type: functional, cell-based; details: RAW264.7, 24 h
[1] = Cytotoxicity against mouse RAW264.7 cells assessed as cell viability at 100 uM after 24 hrs by MTT assay; assay type: cell-based; details: read-out: Activity

| IC50 (RAW264.7) [µM] | Structure (SMILES) | viability at 24 h, 100 µM [1] [%] |
| --- | --- | --- |
| > 100 | C=C1CC[C@@H]2[C@](C)(CO)[C@H](O)CC[C@@]2(C)[C@]1(O)CCC1=CCOC1=O | 86 |
| > 100 | C[C@@]1(CO)[C@H](O)CC[C@@]2(C)C(CCC3=CCOC3=O)=C(CO)CC[C@H]12 | 91.1 |
| > 100 | C[C@@]1(CO)[C@H](O)CC[C@@]2(C)C(CCC3=CCOC3=O)=C(C=O)CC[C@H]12 | 99.7 |
| 89.2 | C[C@@]12CCC(=O)[C@@](C)(CO)[C@H]1CC[C@@]1(CO1)[C@H]2CCC1=CCOC1=O | 63.1 |
| > 100 | C[C@]1(CO)[C@H]2CC[C@@]3(CO3)[C@@H](CCC3=CCOC3=O)[C@]2(C)CC[C@H]1O | 88.4 |
| > 100 | CO[C@]1(CO)CC[C@@H]2[C@](C)(CO)[C@H](O)CC[C@@]2(C)[C@@H]1CCC1=CCOC1=O | 100 |
| > 100 | C=C1CC[C@@H]2[C@](C)(CO)[C@H](O)C[C@@H](O)[C@@]2(C)[C@@H]1CCC1=CCOC1=O | 101 |
| 97.2 | C=C1CC[C@@H]2[C@](C)(CO)[C@H](O)CC[C@@]2(C)[C@]1(O)/C=C/C1=CCOC1=O | 98.6 |
| 39.1 | C[C@]1(CO)[C@H]2CC=C(CO)[C@@H](/C=C/C3=CCOC3=O)[C@]2(C)CC[C@H]1O | 106 |
| > 100 | C=C1[C@@H](CCC2=CCOC2=O)[C@]2(C)CC[C@@H](O)[C@@](C)(CO)[C@H]2C[C@@H]1O | 89.1 |
| 11.6 | C=C1CC[C@@H]2[C@](C)(CO)CCC[C@@]2(C)[C@@H]1CCC1=CCOC1=O [ANDROGRAPANIN] | 99.8 |
| 21 | C=C1CC[C@@H]2[C@](C)(CO)[C@H](O)CC[C@@]2(C)[C@@H]1CCC1=CCOC1=O [DEOXYANDROGRAPHOLIDE] | 100 |

More lines, now with the values behind:

| Structure (SMILES) | IC50 (RAW264.7) [µM] | viability at 24 h, 100 µM [1] [%] |
| --- | --- | --- |
| C=C1CC[C@@H]2[C@](C)(CO)C(=O)CC[C@@]2(C)[C@]1(O)CCC1=CCOC1=O | 28.4 | 87.5 |
| C[C@@]12CCC(=O)[C@@](C)(CO)[C@H]1CCC(CO)=C2CCC1=CCOC1=O | 79 | 101 |
| C=C1[C@H](O)C[C@H]2[C@@](C)(CCC(=O)[C@@]2(C)CO)[C@@H]1CCC1=CCOC1=O | 58.2 | 102 |
| C[C@@]12CCC(=O)[C@@](C)(CO)[C@H]1CC=C(CO)[C@H]2CCC1=CCOC1=O | 71.3 | 104 |
| C=C1CC[C@H]2[C@@](C)(C=CC(=O)[C@@]2(C)CO)[C@@H]1CCC1=CCOC1=O | 10 | 100 |
| C=C1CC[C@H]2[C@@](C)([C@H](O)CC(=O)[C@@]2(C)CO)[C@@H]1CCC1=CCOC1=O | 61.9 | 100 |
| C=C1CC[C@H]2[C@@](C)(C[C@H](O)C(=O)[C@@]2(C)CO)[C@@H]1CCC1=CCOC1=O | 12.2 | 103 |
| C=C1CC[C@@H]2[C@](C)(CO)[C@H](O)CC[C@@]2(C)[C@@H]1C/C=C1/C(=O)OC[C@@H]1O | 26.5 | 65.2 |
| C=C1CC[C@@H]2[C@](C)(CO)[C@H](O)CC[C@@]2(C)[C@@H]1C/C=C(/C(=O)O)[C@@H](O)CO | > 100 | 104 |
| C=C1CC[C@@H]2[C@](C)(COC3O[C@H](CO)[C@@H](O)[C@H](O)[C@H]3O)CCC[C@@]2(C)[C@@H]1CCC1=CCOC1=O (some centres not stated) | > 100 | 81.4 |
| C=C1CC[C@H]2[C@@](C)(CCC(=O)[C@@]2(C)CO)[C@@H]1/C=C/C1=CCOC1=O | 75.3 | 104 |
| C=C1CC[C@H]2[C@@](C)(CCC(=O)[C@@]2(C)CO)[C@@H]1CCC1=CCOC1=O | 10.1 | 110 |
| C=C1CC[C@@H]2[C@](C)(CO)[C@H](O)CC[C@@]2(C)[C@@H]1C/C=C1/C(=O)OC[C@H]1O [ANDROGRAPHOLIDE] | 6.96 | 49.6 |
| CN(C)c1ccc(O)c2c1C[C@H]1C[C@H]3[C@H](N(C)C)C(O)=C(C(N)=O)C(=O)[C@@]3(O)C(O)=C1C2=O [MINOCYCLINE] | 34.9 | 100 |
